From ChEMBL document CHEMBL1201862, “PubChem BioAssay data set” (2004)
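These data come from cells grown in 96-well plates and exposed to compound for 48 hours at five concentrations. The concentration for 50% growth inhibition is given as GI50.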 Calls of active or inactive are those of the source. Rule as the data show it: active = GI50 up to about 1.1 µM and inactive = higher.

What was measured:
Assay in all cases: growth of human tumour cells (NCI), 48 h
[1] = tested on: CAKI-1
[2] = tested on: CCRF-CEM
[3] = tested on: HOP-92
[4] = tested on: IGROV-1
[5] = tested on: K562
[6] = tested on: LOX IMVI
[7] = tested on: MCF7
[8] = tested on: MDA-MB-435
[9] = tested on: Malme-3M
[10] = tested on: NCI-H226
[11] = tested on: NCI-H460
[12] = tested on: NCI/ADR-RES
[13] = tested on: OVCAR-8
[14] = tested on: SF-295
[15] = tested on: SK-MEL-2
[16] = tested on: SK-MEL-5
[17] = tested on: SN12C
[18] = tested on: SW-620
[19] = tested on: UO-31
[20] = tested on: DU-145

Structure (SMILES) | GI50 [1] | GI50 [2] | GI50 [3] | GI50 [4] | GI50 [5] | GI50 [6] | GI50 [7] | GI50 [8] | GI50 [9] | GI50 [10] | GI50 [11] | GI50 [12] | GI50 [13] | GI50 [14] | GI50 [15] | GI50 [16] | GI50 [17] | GI50 [18] | GI50 [19] | GI50 [20]
COC(=O)CN1CCN(c2cccc3c2CCCC3)CC1 | > 100 µM (inactive) | 47.9 µM (inactive) | 0.0248 µM (active) | > 100 µM (inactive) | 90.2 µM (inactive) | 43.5 µM (inactive) | 37 µM (inactive) | 40.5 µM (inactive) | 24.5 µM (inactive) | 23.4 µM (inactive) | 46.8 µM (inactive) | 24.5 µM (inactive) | > 100 µM (inactive) | > 100 µM (inactive) | > 100 µM (inactive) | 23.2 µM (inactive) | 56 µM (inactive) | > 100 µM (inactive) | 92.3 µM (inactive) | 
[O-][S+](Nc1ccccc1)c1ccccc1Oc1ccccc1 (stereo not drawn) | 39.8 µM (inactive) | 32.5 µM (inactive) |  | 2.62 µM (inactive) | 48.6 µM (inactive) | 19.7 µM (inactive) | 60 µM (inactive) | 40.8 µM (inactive) | 30.5 µM (inactive) | 30.4 µM (inactive) | 35.3 µM (inactive) | 27.5 µM (inactive) | 26.9 µM (inactive) | 28.2 µM (inactive) |  | 30.5 µM (inactive) | 86.7 µM (inactive) | > 100 µM (inactive) | 20.9 µM (inactive) | > 100 µM (inactive)
CC(C)(C)N/N=N/c1cn(C2OC(CO)C(O)C2O)c(=O)[nH]c1=O (stereo not drawn) | > 100 µM (inactive) | 26.2 µM (inactive) | > 100 µM (inactive) | > 100 µM (inactive) | 40.7 µM (inactive) | 41.7 µM (inactive) |  |  | > 100 µM (inactive) | > 100 µM (inactive) | 64.9 µM (inactive) |  | > 100 µM (inactive) | > 100 µM (inactive) | > 100 µM (inactive) | > 100 µM (inactive) | > 100 µM (inactive) | 17.6 µM (inactive) | > 100 µM (inactive) | 
NC(=O)N/N=C1/CCCC/C1=C\c1ccccc1 | > 100 µM (inactive) | > 100 µM (inactive) | > 100 µM (inactive) | > 100 µM (inactive) | > 100 µM (inactive) | > 100 µM (inactive) |  |  | > 100 µM (inactive) | > 100 µM (inactive) | > 100 µM (inactive) |  | > 100 µM (inactive) | > 100 µM (inactive) | > 100 µM (inactive) | > 100 µM (inactive) | > 100 µM (inactive) | > 100 µM (inactive) | 80.9 µM (inactive) | 
CC1C2CC(C(S(=O)(=O)O)C2=O)C1(C)C (stereo not drawn) |  | > 100 µM (inactive) | > 100 µM (inactive) | > 100 µM (inactive) | > 100 µM (inactive) |  | > 100 µM (inactive) | > 100 µM (inactive) | > 100 µM (inactive) | > 100 µM (inactive) | > 100 µM (inactive) |  | > 100 µM (inactive) | > 100 µM (inactive) |  |  | > 100 µM (inactive) | > 100 µM (inactive) | > 100 µM (inactive) | > 100 µM (inactive)
N#CI1OC(=O)c2ccccc21 | 40.7 µM (inactive) | 2.83 µM (inactive) |  | > 100 µM (inactive) | 39.8 µM (inactive) | > 100 µM (inactive) | 60.7 µM (inactive) | > 100 µM (inactive) |  | > 100 µM (inactive) | > 100 µM (inactive) | > 100 µM (inactive) | > 100 µM (inactive) | > 100 µM (inactive) | > 100 µM (inactive) | > 100 µM (inactive) | > 100 µM (inactive) | > 100 µM (inactive) | > 100 µM (inactive) | > 100 µM (inactive)
Cn1cc(NC(=O)c2cc(NC(=O)CCCCCCCCCC(=O)Nc3cc(C(=O)Nc4cc(C(=O)NCCC(=N)N)n(C)c4)n(C)c3)cn2C)cc1C(=O)NCCC(=N)N | 32 µM (inactive) | 22.6 µM (inactive) | 16.4 µM (inactive) | 41.5 µM (inactive) | 14.3 µM (inactive) | 31 µM (inactive) |  |  | 0.971 µM (active) | > 100 µM (inactive) | 23.9 µM (inactive) |  | 25.7 µM (inactive) | 22.1 µM (inactive) | 29.3 µM (inactive) | 14.7 µM (inactive) | 32.2 µM (inactive) | 32 µM (inactive) | 53.5 µM (inactive) | 
COc1ccc(C2CCC(Cl)(OC)CC2C=O)cc1 (stereo not drawn) | 39.8 µM (inactive) | 29.7 µM (inactive) | 29.9 µM (inactive) | > 100 µM (inactive) | > 100 µM (inactive) | 13.3 µM (inactive) |  |  | 44.9 µM (inactive) | > 100 µM (inactive) | > 100 µM (inactive) |  | 85.1 µM (inactive) | 46.1 µM (inactive) | 21.9 µM (inactive) | 58.7 µM (inactive) | > 100 µM (inactive) | 54.3 µM (inactive) | 80.4 µM (inactive) | 
C/C=C/C1(C)/C(=N\O)C(C)(CCC)C(=O)N1O (stereo not drawn) | > 100 µM (inactive) | > 100 µM (inactive) | > 100 µM (inactive) | > 100 µM (inactive) | > 100 µM (inactive) | > 100 µM (inactive) |  |  | > 100 µM (inactive) | > 100 µM (inactive) | > 100 µM (inactive) |  | > 100 µM (inactive) | > 100 µM (inactive) | > 100 µM (inactive) | > 100 µM (inactive) | > 100 µM (inactive) | > 100 µM (inactive) | > 100 µM (inactive) | 
COc1ccc(-c2nc(Nc3ccccc3)sc2Cc2sc(Nc3ccccc3)nc2-c2ccc(OC)cc2)cc1 | > 100 µM (inactive) | 36.5 µM (inactive) |  | > 100 µM (inactive) | 5.18 µM (inactive) | 15.5 µM (inactive) | 8.05 µM (inactive) | 52.4 µM (inactive) | > 100 µM (inactive) | > 100 µM (inactive) | 51.8 µM (inactive) | > 100 µM (inactive) | > 100 µM (inactive) | > 10 µM (inactive) |  | > 100 µM (inactive) | 27 µM (inactive) | 67.5 µM (inactive) | > 100 µM (inactive) | > 100 µM (inactive)
O=C(CC(=O)C1CCOC1=O)C(=O)Nc1ccc(Cl)cc1Cl (stereo not drawn) | > 100 µM (inactive) | > 100 µM (inactive) | > 100 µM (inactive) | > 100 µM (inactive) | > 100 µM (inactive) | > 100 µM (inactive) |  |  | > 100 µM (inactive) | > 100 µM (inactive) | > 100 µM (inactive) |  | > 100 µM (inactive) | > 100 µM (inactive) | > 100 µM (inactive) | > 100 µM (inactive) | > 100 µM (inactive) | > 100 µM (inactive) | > 100 µM (inactive) | 
O=C(Nc1nccs1)c1cc(C2=CC=CC([N+](=O)[O-])C=C2)nc(S)n1 (stereo not drawn) | > 100 µM (inactive) | > 100 µM (inactive) | > 100 µM (inactive) | > 100 µM (inactive) | > 100 µM (inactive) | > 100 µM (inactive) |  |  | > 100 µM (inactive) | > 100 µM (inactive) | > 100 µM (inactive) |  | > 100 µM (inactive) | > 100 µM (inactive) | > 100 µM (inactive) | > 100 µM (inactive) | > 100 µM (inactive) | > 100 µM (inactive) | > 100 µM (inactive) | 
CCOc1ccccc1NC(=O)CCC(=O)OC | > 100 µM (inactive) | > 45.6 µM (inactive) | > 100 µM (inactive) | > 100 µM (inactive) | > 56.2 µM (inactive) | > 31.6 µM (inactive) |  |  | > 100 µM (inactive) | > 100 µM (inactive) | > 100 µM (inactive) |  | > 100 µM (inactive) | > 100 µM (inactive) | > 100 µM (inactive) | > 100 µM (inactive) | > 100 µM (inactive) | > 42.1 µM (inactive) | > 100 µM (inactive) | 
O=c1[nH][nH]c(=O)c2c1ccc1oc3ccccc3c12 | 45.8 µM (inactive) | > 100 µM (inactive) | > 100 µM (inactive) | > 100 µM (inactive) | > 100 µM (inactive) |  | > 100 µM (inactive) | > 100 µM (inactive) | > 100 µM (inactive) | > 100 µM (inactive) | > 100 µM (inactive) |  | > 100 µM (inactive) | > 100 µM (inactive) | > 100 µM (inactive) | > 100 µM (inactive) | > 100 µM (inactive) | > 100 µM (inactive) | > 100 µM (inactive) | > 100 µM (inactive)
CC(C)CCn1nc(N)c2nc3ccccc3nc21 | 64.4 µM (inactive) | 46.2 µM (inactive) | > 100 µM (inactive) | > 100 µM (inactive) | 57.1 µM (inactive) | > 100 µM (inactive) | 72.8 µM (inactive) | > 100 µM (inactive) | > 100 µM (inactive) | 61.8 µM (inactive) | 57 µM (inactive) | > 100 µM (inactive) | > 100 µM (inactive) | > 100 µM (inactive) | > 100 µM (inactive) |  | > 100 µM (inactive) | 67.6 µM (inactive) | > 100 µM (inactive) | 
CCCNCCCC(NC(C)=O)C(=O)NCc1ccccc1 (stereo not drawn) | > 100 µM (inactive) | > 100 µM (inactive) | > 100 µM (inactive) | > 100 µM (inactive) | > 100 µM (inactive) | > 100 µM (inactive) |  |  | > 100 µM (inactive) | > 100 µM (inactive) | > 100 µM (inactive) |  | > 100 µM (inactive) | > 100 µM (inactive) | > 100 µM (inactive) | > 100 µM (inactive) | > 100 µM (inactive) | > 100 µM (inactive) | > 100 µM (inactive) | 
